Experimental data from patent US8466186B2, “Compounds” (Boehringer Ingelheim International GmbH, priority 2010, dated 2013).

Target: T1, recombinant human mPGES-1 (Homo sapiens, UniProt O14684)
T1 construct: made in house; host or cells: Rosetta E. coli (membrane/microsome fraction)
T1 sequence (O14684 1-152): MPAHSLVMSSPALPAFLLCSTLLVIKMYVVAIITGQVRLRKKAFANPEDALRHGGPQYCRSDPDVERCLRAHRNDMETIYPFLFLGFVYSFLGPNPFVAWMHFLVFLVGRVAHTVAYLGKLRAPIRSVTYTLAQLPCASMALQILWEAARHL
Assay: Assay A: mPGES-1 enzyme assay (HTRF detection of PGE2)
Assay type: biochemical
Conditions: biological assay A; microsomes from E. coli expressing recombinant human mPGES-1; read-out: mPGES-1 inhibitory effect IC50
In short: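 Human mPGES-1 in E. coli (Rosetta) microsomes, in 0.1 M KP pH 7.4 with 2.5 mM GSH, preincubated with inhibitor 25 min at room temperature. PGH2 substrate added for 1 min, then stopped with acidified FeCl2. PGE2 formed measured by HTRF after 750-fold dilution.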

Row | SMILES | IC50
1 | COC[C@@H]1CCCN1c1cc2c(cc1Cl)nc(Nc1cc(CNC(=O)C3(C(F)(F)F)CC3)ccc1Cl)n2C [Example 126] | 6.7 nM
2 | N#Cc1cc2nc(Nc3cc(CNC(=O)C4(C(F)(F)F)CC4)ccc3Cl)[nH]c2cc1N1CCCC1 [Example 127] | 26 nM
3 | O=C(NCc1ccc(Cl)c(Nc2nc3cc(Cl)c(N4CCOCC4)cc3[nH]2)c1)C1(C(F)(F)F)CC1 [Example 128] | 172 nM
4 | CN1CCN(c2cc3[nH]c(Nc4cc(CNC(=O)C5(C(F)(F)F)CC5)ccc4Cl)nc3cc2Cl)CC1 [Example 129] | 634 nM
5 | N#Cc1cc2nc(Nc3cc(CNC(=O)C4(C(F)(F)F)CC4)ccc3Cl)[nH]c2cc1N1CCCC(C(F)(F)F)C1 (stereo not shown) [Example 130] | 15 nM
6 | Cn1c(Nc2cc(CNC(=O)C3(C(F)(F)F)CC3)ccc2Cl)nc2ccc(N3CCCC3)cc21 [Example 132] | 124 nM
7 | COC[C@@H]1CCCN1c1cc2[nH]c(Nc3cc(CNC(=O)C4(C(F)(F)F)CC4)ccc3Cl)nc2cc1Cl [Example 133, (S)—N-{4-Chloro-3-[5-chloro-6-(2-methoxymethyl-pyrrolidin-1-yl)-1H-benzo[d]imidazol-2-ylamino]benzyl}-1-trifluoromethyl-cyclopropanecarboxamide] | 25 nM

Target: T1, recombinant human mPGES-1
Assay: Assay B: mPGES-1 enzyme assay (modified)
Assay type: biochemical
Conditions: biological assay B (modified); PGH2 final conc. 2 μM; read-out: mPGES-1 inhibitory effect IC50
Procedure: Assay B: mPGES-1 Enzyme Assay (Modified)
Microsomes from Rosetta E. coli bacteria expressing recombinant human mPGES-1 can be derived as described below:
Inoculate 5 ml LB with Ampicilin (50 μg/ml) and Chloramphenicol (34 μg/ml) with bacteria from freeze culture. Incubate 8 h at 37° C. with 200 rpm. Thereafter, inoculate 500-1000 ml LB containing Ampicilin and Chloramphenicol with the 5 ml on culture and grow to OD640 of 0.8-1.0. Chill the culture to +4° C. before induction. Induce the culture with IPTG at a final concentration of 400 μM. Express the protein at room temp 18-23° C. with 200 rpm shaking overnight.
The following steps can be performed on the following day: • 1. Spin down the cells in 250 ml centrifuge flasks for 15 min at 7000 rpm (Beckmann Coulte Avanti J-E centrifuge) • 2. Dissolve the pellet from 250 ml culture in 12.5 ml homogenization buffer • 3. (15 mM Tris-HCL pH8, 1 mM EDTA pH8, […], 2.5 mM GSH, 1 Tablet Protease inhibitor per 50 ml buffer) • 4. Disintegrate the cells by sonication, 5×10 seconds at 48% amplitude of a 750 W sonifier • 5. Add 2.5 ml MgCl2 (100 mM) and DNase 12.5 μl (0.8 mg/ml) and incubate on ice for 30 min • 6. Spin down the bacteria debris and save the supernatant, 7000 rpm for 15 min • 7. Isolate the protein containing membranes in the supernatant by ultracentrifugation 120000×g for 2 hour at 4° C. (Sorvall T880 rotor). • 8. Discard the supernatant and dissolve the pellet in 20 mM Potassium phosphate buffer pH7.4 (KH2PO4 and K2HPO4) buffer by sonication (5×10 s, 30% of a 50 W sonifier) and aliquot the enzyme and store aliquots at −80° C.
Before each experiment is performed an aliquot of the enzyme is thawed and it can then be dissolved in 0.1 M Potassium phosphate buffer pH7.4 (KH2PO4 and K2HPO4) buffer containing 2.5 mM GSH.
The aim of this assay is to determine the affinity of a test compound for the mPGES-1 enzyme.
47 μl of recombinant human mPGES-1 (˜0.5 μg protein/well) containing microsomal suspension in a buffer containing GSH, (2.5 mmol/L L-Glutathione reduced, dissolved in 0.1 mol/L Phosphat Buffer pH 7.4) is dispensed in a 384-well plate and thereafter 1 μl of the test compound(s) is/are added and incubated for 25 minutes at room temperature. The enzyme reaction is started by the addition of 2 ul PGH2 (final conc. 2 μM) dissolved in water-free Diglyme. After 60 seconds the reaction is terminated by addition of a stop solution containing FeCl2 (10 μL 0.074 mol/l FeCl2). The samples are diluted between 1:25 in PBS (Phosphate Buffered Saline). 10 μl of the diluted samples are transferred to 384-well low volume plate. In order to quantify the amount of PGE2 that has been formed, a homogenous time resolved fluorescent (HTRF) detecting of PGE2 has been performed using a commercially available kit from Cisbio according to the manufactures recommendation. This HTRF-based assay has been described in detail (see: Goedken et al., J Biomol Screen, 2008, 13(7), 619-625). Briefly, the diluted samples are mixed with 5 μl PGE2-d2 conjungate and 5 μl anti-PGE2 cryptate conjungate. After an incubation period of the plates overnight, the fluorescence is measured by the use of an appropriate microplate reader.
The fluorescence of Europium cryptate (maxex=307 nm, maxem=620 nm) and d2-PGE2 (maxex=620 nm, maxem=665 nm) are measured.
The extent of the specific HTRF is measured as a ratio of the emission intensity at 665 nm vs. that at 620 nm at an excitation puls of 320 nm. The quantification plate contains also wells with different concentrations of PGE2 as calibration curve for the calculation of the PGE2 concentrations from the HTRF ratio values.
From all mPGES enzyme assay the background is subtracted and the IC50 is calculated over a nonlinear regression with conventional software.

Row | SMILES | IC50
8 | Cn1c(Nc2cc(CNC(=O)C(C)(C)C)ccc2Cl)nc2cc(N3CCC(C(F)(F)F)CC3)ccc21 [Example 12] | 174 nM
9 | Cn1c(Nc2c(Cl)ccc(CNC(=O)C(C)(C)C)c2F)nc2cc(Cl)c(N3CCC(F)CC3)cc21 [Example 33, N-{2-Fluoro-4-chloro-3-[5-chloro-1-methyl-6-(4-fluoro-piperidin-1-yl)-1H-benzimidazol-2-ylamino]-benzyl}-2,2-dimethyl-propionamide] | 3 nM
10 | CN(CC(C)(C)O)c1cc2c(cc1Cl)nc(Nc1c(Cl)ccc(CNC(=O)C(C)(C)C)c1F)n2C [Example 37] | 7.8 nM
11 | CC(C)(C)C(=O)NCc1ccc(Cl)c(Nc2nc3cc(Cl)c(N4CCC(C(F)(F)F)CC4)cc3[nH]2)c1Cl [Example 40, N-{2,4-Dichloro-3-[5-chloro-6-(4-trifluoromethyl-piperidin-1-yl)-1H-benzimidazol-2-ylamino]-benzyl}-2,2-dimethyl-propionamide] | 5.7 nM
12 | CC(C)(C)C(=O)NCc1ccc(Cl)c(Nc2nc3cc(Cl)c(N4CCC(F)CC4)cc3[nH]2)c1F [Example 48] | 9 nM
13 | Cn1c(Nc2c(Cl)ccc(CNC(=O)OC(C)(C)C)c2Cl)nc2cc(Cl)c(N3CCCC(C(F)(F)F)C3)cc21 (stereo not shown) [Example 51] | 23 nM
14 | CC(C)(C)C(=O)NCc1ccc(Cl)c(Nc2nc3cc(Cl)c(N4CCCC(C(F)(F)F)C4)cc3[nH]2)c1Cl (stereo not shown) [Example 52] | 2.2 nM
15 | Cn1c(Nc2c(Cl)ccc(CNC(=O)C(C)(C)C)c2Cl)nc2cc(Cl)c(N3CCCC(C(F)(F)F)C3)cc21 (stereo not shown) [Example 53] | 3.5 nM
16 | Cn1c(Nc2c(Cl)ccc(CNC(=O)C(C)(C)C)c2Cl)nc2cc(Cl)c(N3CCC(C(F)(F)F)C3)cc21 (stereo not shown) [Example 59] | 2 nM
17 | CC(C)(C)C(=O)NCc1ccc(Cl)c(Nc2nc3cc(C(F)(F)F)c(N4CCC(C(F)(F)F)CC4)cc3[nH]2)c1Cl [Example 61, N-{2,4-Dichloro-3-[5-trifluoromethyl-6-(4-trifluoromethyl-piperidin-1-yl)-1H-benzimidazol-2-ylamino]benzyl}-2,2-dimethyl-propionamide] | 5 nM
18 | Cn1c(Nc2c(F)ccc(CNC(=O)C(C)(C)C)c2F)nc2cc(Cl)c(N3CCC(C(F)(F)F)CC3)cc21 [Example 70, N-{2,4-Difluoro-3-[5-chloro-1-methyl-6-(4-trifluoromethyl-piperidin-1-yl)-1H-benzimidazol-2-ylamino]-benzyl}-2,2-dimethyl-propionamide] | 6.5 nM
19 | Cn1c(Nc2cc(CNC(=O)C3(C(F)(F)F)CC3)ccc2Cl)nc2cc(Cl)c(N3CCN(CC(F)(F)F)CC3)cc21 [Example 92] | 39 nM
20 | Cn1c(Nc2cc(CNC(=O)C(C)(C)C(F)(F)F)ccc2Cl)nc2cc(Cl)c(N3CCC(c4ccccc4)CC3)cc21 [Example 97] | 3.1 nM
21 | Cn1c(Nc2cc(CNC(=O)C(C)(C)C(F)(F)F)ccc2Cl)nc2cc(Cl)c(N3CCN(c4ccc(C(F)(F)F)cc4)CC3)cc21 [Example 98] | 6.5 nM
22 | CC(C)(C)C(=O)NCc1ccc(Cl)c(Nc2nc3cc(C#N)c(N4CCC(C(F)(F)F)CC4)cc3[nH]2)c1Cl [Example 131] | 5 nM
